Reference: the NIST ThermoML archive (doi:10.1016/j.tca.2011.02.004)

Assays:
[1] = xn = mol fraction of the nth substance listed; conditions: 101 kPa, Liquid; for speed of sound: Linear variable-path acoustic interferometer; for mass density: Pycnometric method
[2] = 101.3 kPa, Liquid; for speed of sound: Linear variable-path acoustic interferometer; for mass density: Pycnometric method

CC(C)OC(C)C [diisopropyl ether] + CN(C)c1ccccc1
[1], x1 = 1
Conditions | mass density [kg/m3] | speed of sound [m/s]
303.15 K | 712.9 | 976
313.15 K | 702.5 | 932
323.15 K | 691.9 | 889

C1CCOC1 [tetrahydrofuran] + CCN(CC)c1ccccc1
[1], x1 = 1
Conditions | mass density [kg/m3] | speed of sound [m/s]
303.15 K | 876.9 | 1254
313.15 K | 865.7 | 1207
323.15 K | 854.8 | 1165

CC(C)OC(C)C [diisopropyl ether] + CCN(CC)c1ccccc1
[1], x1 = 1
Conditions | mass density [kg/m3] | speed of sound [m/s]
303.15 K | 712.9 | 976
313.15 K | 702.5 | 932
323.15 K | 691.9 | 889

CCN(CC)c1ccccc1 [N,N-diethylaniline] + C1CCOC1
[1]
Conditions | mass density, 303.15 K [kg/m3] | mass density, 313.15 K [kg/m3] | mass density, 323.15 K [kg/m3] | speed of sound, 303.15 K [m/s] | speed of sound, 313.15 K [m/s] | speed of sound, 323.15 K [m/s]
x2 = 0 | 926.2 | 917.6 | 909.2 | 1434 | 1396 | 1358
x2 = 0.0933 | 923.9 | 915.7 | 907.8 | 1428 | 1390 | 1354
x2 = 0.1907 | 921.2 | 913.3 | 905.7 | 1418 | 1379 | 1343
x2 = 0.2899 | 918.2 | 910.4 | 903 | 1405 | 1366 | 1330
x2 = 0.3879 | 914.9 | 907.1 | 899.6 | 1390 | 1351 | 1315
x2 = 0.4892 | 910.8 | 903.2 | 895.3 | 1372 | 1333 | 1296
x2 = 0.5937 | 906 | 898.4 | 890.5 | 1352 | 1312 | 1275
x2 = 0.6904 | 900.9 | 893.1 | 885.1 | 1331 | 1291 | 1252
x2 = 0.7948 | 894.3 | 886.2 | 878.1 | 1307 | 1265 | 1226
x2 = 0.8935 | 886.9 | 877.9 | 869.2 | 1283 | 1240 | 1200

CCN(CC)c1ccccc1 [N,N-diethylaniline] + CC(C)OC(C)C
[1]
Conditions | mass density, 303.15 K [kg/m3] | mass density, 313.15 K [kg/m3] | mass density, 323.15 K [kg/m3] | speed of sound, 303.15 K [m/s] | speed of sound, 313.15 K [m/s] | speed of sound, 323.15 K [m/s]
x2 = 0 | 926.2 | 917.6 | 909.2 | 1434 | 1396 | 1358
x2 = 0.078 | 914.4 | 906.8 | 899 | 1403 | 1367 | 1332
x2 = 0.1606 | 901 | 893.6 | 886.6 | 1370 | 1336 | 1302
x2 = 0.2581 | 884 | 876.7 | 870.2 | 1330 | 1296 | 1261
x2 = 0.3421 | 868.5 | 861.1 | 854.7 | 1295 | 1260 | 1224
x2 = 0.4336 | 850.7 | 843 | 836.7 | 1255 | 1218 | 1182
x2 = 0.5341 | 829.8 | 822.1 | 815.7 | 1209 | 1171 | 1134
x2 = 0.6457 | 804.7 | 797.1 | 790.6 | 1156 | 1117 | 1080
x2 = 0.7545 | 778.3 | 770.6 | 764 | 1103 | 1063 | 1023
x2 = 0.8762 | 746.7 | 738.3 | 730.8 | 1042 | 1000 | 958

CN(C)c1ccccc1 [N,N-dimethylaniline]
[2]
Conditions | mass density [kg/m3] | speed of sound [m/s]
303.15 K | 948.4 | 1468
313.15 K | 939.8 | 1431
323.15 K | 931.5 | 1393
